Values of other authors as cited in patent US8569271B2 (Laboratorios del Dr. Esteve, S.A., priority 2009, dated 2013).

solubility in water: only slightly soluble in water
SMILES: Cc1ccc(-c2cc(C(F)(F)F)nn2-c2ccc(S(N)(=O)=O)cc2)cc1 [celecoxib, 4-[5-(4-methylphenyl)-3-(trifluoromethyl)-pyrazol-1-yl]-benzenesulfonamide]
